As usually defined, the Kd is the equilibrium constant for the complex coming apart. The term kon denotes the rate constant with which the complex forms. Usually EC50 stands for the midpoint of the concentration-response curve.

Converted amounts (≈) assume the structure as drawn. Where two headings read alike, the source gives them in different places.

The target of one data set is FHV-1 gB (Feline herpesvirus 1, UniProt Q86665). Description: biochemical. The data set is classed as binding, feline herpesvirus-1 (FHV-1). The settings on record: for koff: read-out: Kdis (rate of dissociation); for kon: read-out: Kon (rate of association); for Binding and dissociation kinetics in words: BLI, gB.
A short description of another data set: in vitro. The following applies: cat.
The test system of data set [1] is FHV-1. As to the kind of experiment: Cytopathic effect (CPE) inhibition assay. The following applies: for Anti-FHV-1: in vitro anti-FHV-1 effect in CRFK cells, √ / × (key not given); for EC50: Felid alphaherpesvirus 1, CRFK, 48 h. On the technique in general: Cytopathic effects are the visible damage that an infection or toxin causes in cultured cells.
Data set [2] relates to FHV-1. Also noted: method as in earlier work. The settings on record: reported for CRFK cells; cited from earlier work.
In the next data set the test system is CRFK cells. The settings on record: 48 h, CCK-8.
Data set [3] deals with FHV-1. Description: Fusion and entry assays with DIOC- and R18-labelled virus (confocal microscopy). The settings on record: 10 MOI, CRFK cells; for Adsorption of DIOC-labelled FHV-1: 4 °C 2 h. The data set is classed as cell-based, feline herpesvirus-1 (FHV-1).
For data set [4], the system named is FHV-1. As to the kind of experiment: Time of drug addition assay with qPCR of viral nucleic acid copies. The data set is classed as cell-based, feline herpesvirus-1 (FHV-1). The following applies: for Inhibition of FHV-1 entry into host cells (virus entry assay): 4 °C pre-incubation then 37 °C, Saikosaponin B2 50 μg/mL; for FHV-1 nucleic acid copy numbers after drug pretreatment of cells: CRFK cells pretreated before infection, qPCR.

A further data set concerns gB. The data set is classed as binding, feline herpesvirus-1 (FHV-1).
Data set [5] deals with FHV-1. Description: Plaque reduction assay. The data set is classed as cell-based, feline herpesvirus-1 (FHV-1). The following applies: CRFK cells. A general note: Plaque reduction counts the foci of infection that form in a cell layer.

As for `O=C(O)[C@H]1O[C@@H](Oc2cc3oc(-c4ccccc4)cc(=O)c3c(O)c2O)[C@H](O)[C@@H](O)[C@@H]1O` [Baicalin], at FHV-1 gB, binding was put at a Kd of 41.6 µM, the koff was 0.922 s⁻¹ and the kon worked out at 1090 M⁻¹ s⁻¹. In addition, in the data set “in vitro”, the CC50 at 48 h amounted to 65.8 ± 2.12 µg/mL (≈ 147 µM). Besides, the Anti-FHV-1 result in the data set on FHV-1 [1] was “×”.
As to `Nc1ccn(C[C@@H](CO)OCP(=O)(O)O)c(=O)n1` [Cidofovir], the concentration giving a half-maximal response (EC50) with FHV-1 [2] is 3.07 µg/mL (≈ 11 µM).
As for `O=C(O)c1cc(O)c2c(c1)[C@H]([C@H]1c3cc(C(=O)O)cc(O)c3C(=O)c3c(O[C@@H]4O[C@H](CO)[C@@H](O)[C@H](O)[C@H]4O)cccc31)c1cccc(O[C@@H]3O[C@H](CO)[C@@H](O)[C@H](O)[C@H]3O)c1C2=O` [Sennoside A], at FHV-1 gB, the Kd was under 1e-06 µM, the koff is under 1e-07 s⁻¹ and the on-rate (kon) was determined as 1440 M⁻¹ s⁻¹. This compound returned a CC50 at 48 h in the data set “in vitro” of 131 ± 8.86 µg/mL (≈ 152 µM). Also, the Anti-FHV-1 entry in the data set on FHV-1 [1] is on record as “×”.
Regarding `O=C(C=Cc1ccc(O)c(O)c1)OC1CC(O)(C(=O)O)CC(O)C1OC(=O)C=Cc1ccc(O)c(O)c1` (centres unmarked) [4,5-Dicaffeoylquinic acid], on FHV-1 gB, the dissociation constant (Kd) was found to be 7.96 µM, the koff was 0.0652 s⁻¹ and the association rate constant (kon) stood at 8180 M⁻¹ s⁻¹. Moreover, the CC50 at 48 h in “in vitro” (CRFK cells) was 54.5 ± 2.89 µg/mL (≈ 106 µM). Further, the Anti-FHV-1 entry in the data set with FHV-1 [1] was “×”.
Ivermectin gave a CC50 with CRFK cells of 1.81 ± 0.06 µg/mL. The Anti-FHV-1 entry in the data set with FHV-1 [1] was “×”.
Turning to `O=C(O)P(=O)(O)O` [Foscarnet], the EC50 in the data set with FHV-1 [2] was 44.71 µg/mL (≈ 355 µM).
Take `O=C(O)[C@H]1O[C@@H](Oc2cc3oc(-c4ccc(O)cc4)cc(=O)c3c(O)c2O)[C@H](O)[C@@H](O)[C@@H]1O` [Scutellarin]: on FHV-1 gB, the Kd worked out at 0.647 µM, the koff is 0.00875 s⁻¹ and the kon came out at 13500 M⁻¹ s⁻¹. In the data set “in vitro”, this compound displayed a CC50 at 48 h of 185 ± 3.37 µg/mL (≈ 401 µM). In the data set on FHV-1 [1], the Anti-FHV-1 result was “×”.
For the compound `Nc1nc(O)c2ncn(COC(CO)CO)c2n1` [Ganciclovir], the concentration giving a half-maximal response (EC50) in the data set on FHV-1 [2] is 1.33 µg/mL (≈ 5.21 µM).
In the case of `CC1OC(OC2CCC3(C)C(CCC4(C)C3C=CC3=C5CC(C)(C)CCC5(CO)C(O)CC34C)C2(C)CO)C(O)C(OC2OC(CO)C(O)C(O)C2O)C1O` (centres unmarked) [Saikosaponin B2], the “Adsorption of DIOC-labelled FHV-1” value in the data set on FHV-1 [3] is “inhibit the adsorption of FHV-1”. For the same compound, in the data set with FHV-1 [3] (4 °C 2 h then 37 °C 2 h), the “Entry of R18-labelled FHV-1” value was “inhibited the entry of FHV-1”. For the same compound, in the data set with FHV-1 [4], the “Inhibition of FHV-1 entry into host cells (virus entry assay)” value (from here on “Inhibition … (virus entry assay)”) is recorded as “exhibited inhibitory effects” and the “FHV-1 nucleic acid copy numbers after drug pretreatment of cells” value (shortened to “FHV-1 nucleic acid copy numbers”) was “negligible changes”. Moreover, the “Viral nucleic acid expression with drug treatment after infection” value with FHV-1 [4] (drug applied to CRFK cells infected with FHV-1, qPCR) was “remarkably significant difference”. The “Thermal stability (Tm) of gB” value with gB is “altered the thermal stability of gB”. In the data set on FHV-1 [5], the “Inhibition of FHV-1-induced cytopathic effects and plaque formation” value is reported as “effective inhibitors”. On FHV-1 gB, the “Binding and dissociation kinetics in words” value is “rapid binding and dissociation”. For the same compound, the CC50 at 48 h in the data set “in vitro” (CRFK cells) is 197.5 ± 0.52 µg/mL (≈ 253 µM). For the same compound, in the data set with FHV-1 [1], the EC50 stood at 13.5 µg/mL (≈ 17.3 µM) and the Anti-FHV-1 entry was “√”.
On to `O=c1c(O[C@@H]2O[C@H](CO)[C@@H](O)[C@H](O)[C@H]2O)c(-c2ccc(O)c(O)c2)oc2cc(O)cc(O)c12` [Isoquercetin], for which, on FHV-1 gB, the equilibrium dissociation constant (Kd) was 73.3 µM, the koff was found to be 0.0179 s⁻¹ and the kon is 245 M⁻¹ s⁻¹. Moreover, the CC50 at 48 h in “in vitro” worked out at 289 ± 5.69 µg/mL (≈ 623 µM). Also, the Anti-FHV-1 result in the data set on FHV-1 [1] is given as “×”.
Turning to `C[C@@H]1O[C@@H](O[C@@H]2[C@@H](O)[C@H](OCCc3ccc(O)c(O)c3)O[C@H](CO)[C@H]2OC(=O)/C=C/c2ccc(O)c(O)c2)[C@H](O)[C@H](O)[C@H]1O` [Verbascoside], at FHV-1 gB, the affinity, expressed as Kd, was 39.9 µM; the koff amounted to 0.00729 s⁻¹; the on-rate (kon) turned out to be 183 M⁻¹ s⁻¹. The CC50 at 48 h in “in vitro” came to 79.6 ± 0.99 µg/mL (≈ 127 µM). Moreover, the Anti-FHV-1 entry in the data set with FHV-1 [1] is “×”.
For the compound `Nc1nc2c(ncn2COCCO)c(=O)[nH]1` [Acyclovir], the EC50 in the data set with FHV-1 [2] was 13.04 µg/mL (≈ 57.9 µM).
Take `O=C1c2c(O)cc(O)cc2O[C@H](c2cc(O)c(O)c(O)c2)[C@H]1O` [Dihydromyricetin]: at FHV-1 gB, binding was characterised by a dissociation constant (Kd) of 36.1 µM, the koff is 0.00506 s⁻¹ and the on-rate constant (kon) came to 140 M⁻¹ s⁻¹. In addition, the CC50 at 48 h in “in vitro” was 3.22 ± 0.43 µg/mL (≈ 10.1 µM). Further, in the data set with FHV-1 [1], the Anti-FHV-1 entry is “×”.
As for `Nc1nc2c(ncn2CCC(CO)CO)c(=O)[nH]1` [Penciclovir], the EC50 in the data set on FHV-1 [2] was 3.50 µg/mL (≈ 13.8 µM).
As for `C=CCS[S+]([O-])CC=C` (centres unmarked) [Allicin], on FHV-1 gB, the dissociation constant Kd was found to be 3530 µM, the koff came out at 0.00299 s⁻¹ and the on-rate (kon) is 0.846 M⁻¹ s⁻¹. The compound also came in with a CC50 at 48 h in “in vitro” of 84.9 ± 0.87 µg/mL (≈ 523 µM). Further, the Anti-FHV-1 entry in the data set on FHV-1 [1] is “×”.
For `O=c1[nH]c(=O)n([C@H]2C[C@H](O)[C@@H](CO)O2)cc1I` [Idoxuridine], the half-maximal effective concentration (EC50) in the data set with FHV-1 [2] is 1.52 µg/mL (≈ 4.29 µM).
Take `COc1ccc(-c2cc(=O)c3c(O)cc(O[C@@H]4O[C@H](CO[C@@H]5O[C@@H](C)[C@H](O)[C@@H](O)[C@H]5O)[C@@H](O)[C@H](O)[C@H]4O)cc3o2)cc1O` [Diosmin]: on FHV-1 gB, binding was put at a Kd of 90.8 µM, the koff came out at 0.034 s⁻¹ and the on-rate (kon) is 374 M⁻¹ s⁻¹. In the data set “in vitro”, this compound gave a CC50 at 48 h of 449.75 ± 0.21 µg/mL (≈ 739 µM). Besides, the Anti-FHV-1 result in the data set with FHV-1 [1] was “×”.
In the case of `O=C1OC[C@H]2OC(O)[C@H](O)[C@@H](O)[C@@H]2OC(=O)c2cc(O)c(O)c(O)c2-c2c(O)c(O)c3oc(=O)c4c(c(O)c(O)c5oc(=O)c2c3c54)-c2c1cc(O)c(O)c2O` (mixture of isomers) [Punicalin], the “Adsorption of DIOC-labelled FHV-1” value with FHV-1 [3] is listed as “inhibit the adsorption of FHV-1”. In the data set on FHV-1 [4], the “Inhibition … (virus entry assay)” value is on record as “reduced effectiveness in inhibiting virus infection” and the “FHV-1 nucleic acid copy numbers” value was “negligible changes”. In the data set with gB, the “Thermal stability (Tm) of gB” value is reported as “altered the thermal stability of gB”. In the data set with FHV-1 [5], the “Inhibition of FHV-1-induced cytopathic effects and plaque formation” value is “effective inhibitors”. Besides, on FHV-1 gB, the Kd was under 1e-06 µM; the “Binding and dissociation kinetics in words” value is recorded as “rapid binding with no dissociation”; the koff is under 1e-07 s⁻¹; the kon is 12500 M⁻¹ s⁻¹. In “in vitro” (CRFK cells), this compound returned a CC50 at 48 h of 7.65 ± 0.68 µg/mL. In the data set on FHV-1 [1], the EC50 was determined as 0.22 µg/mL and the Anti-FHV-1 entry is on record as “√”.
Take `O=C1O[C@H]2[C@@H]3OC(=O)c4cc(O)c(O)c(O)c4-c4c(O)c(O)c5oc(=O)c6c(c(O)c(O)c7oc(=O)c4c5c76)-c4c(cc(O)c(O)c4O)C(=O)OC[C@H]3OC(O)[C@@H]2OC(=O)c2cc(O)c(O)c(O)c2-c2c1cc(O)c(O)c2O` (mixture of isomers) [Punicalagin]: the “Adsorption of DIOC-labelled FHV-1” value with FHV-1 [3] was “inhibit the adsorption of FHV-1”. Also, in the data set with FHV-1 [4], the “Inhibition … (virus entry assay)” value was “reduced effectiveness in inhibiting virus infection” and the “FHV-1 nucleic acid copy numbers” value is given as “negligible changes”. Also, the “Thermal stability (Tm) of gB” value in the data set with gB is reported as “altered the thermal stability of gB”. Also, in the data set with FHV-1 [5], the “Inhibition of FHV-1-induced cytopathic effects and plaque formation” value was “effective inhibitors”. At FHV-1 gB, the Kd was under 1e-06 µM; the “Binding and dissociation kinetics in words” value is recorded as “rapid binding with no dissociation”; the koff is under 1e-07 s⁻¹; the kon turned out to be 8740 M⁻¹ s⁻¹. For the same compound, in “in vitro”, the CC50 at 48 h amounted to 3.32 ± 0.28 µg/mL. Further, in the data set with FHV-1 [1], a half-maximal effect (EC50) was put at 2.19 µg/mL and the Anti-FHV-1 entry is reported as “√”.
Regarding `O=C(/C=C/c1ccc(O)c(O)c1)O[C@@H]1C[C@@](OC(=O)/C=C/c2ccc(O)c(O)c2)(C(=O)O)C[C@@H](O)[C@@H]1O` [Cynarine], at FHV-1 gB, the affinity, expressed as Kd, was 8.41 µM; the koff was 0.00596 s⁻¹; the on-rate (kon) was found to be 709 M⁻¹ s⁻¹. Besides, in the data set “in vitro” (CRFK cells), the CC50 at 48 h was 60.1 ± 1.86 µg/mL (≈ 116 µM). In addition, the Anti-FHV-1 entry in the data set with FHV-1 [1] is “×”.
As to `O=c1c(O[C@@H]2O[C@H](CO)[C@H](O)[C@H](O)[C@H]2O)c(-c2ccc(O)c(O)c2)oc2cc(O)cc(O)c12` [Hyperoside], at FHV-1 gB, the Kd was found to be 23.9 µM, the koff came to 0.00683 s⁻¹ and the on-rate (kon) is 286 M⁻¹ s⁻¹. Moreover, the CC50 at 48 h in “in vitro” was over 50 µg/mL. Moreover, in the data set on FHV-1 [1], the Anti-FHV-1 entry is listed as “×”.

(Values after publication PMC10892935 (Viruses, 2024).)
